Laboratory results from patent publication US9290511B2, “Thieno-pyrimidines, useful as potassium channel inhibitors” (XENTION LIMITED, priority 2011, dated 2016).

How the values were obtained:
[1] = molecular target: T1, Kir3.1/3.4 (Rattus norvegicus, UniProt P48548+P63251); assay: Kir3.1/3.4 Q-patch Method (automated patch clamp, Sophion Q-patch); type: cell-based; settings: HEK293 cells stably-expressing Kir3.1/3.4; current at -120 mV; QPatch-16 or QPatch-48
T1 construct: expressed in transfected cells
T1 sequence (P63251 1-501): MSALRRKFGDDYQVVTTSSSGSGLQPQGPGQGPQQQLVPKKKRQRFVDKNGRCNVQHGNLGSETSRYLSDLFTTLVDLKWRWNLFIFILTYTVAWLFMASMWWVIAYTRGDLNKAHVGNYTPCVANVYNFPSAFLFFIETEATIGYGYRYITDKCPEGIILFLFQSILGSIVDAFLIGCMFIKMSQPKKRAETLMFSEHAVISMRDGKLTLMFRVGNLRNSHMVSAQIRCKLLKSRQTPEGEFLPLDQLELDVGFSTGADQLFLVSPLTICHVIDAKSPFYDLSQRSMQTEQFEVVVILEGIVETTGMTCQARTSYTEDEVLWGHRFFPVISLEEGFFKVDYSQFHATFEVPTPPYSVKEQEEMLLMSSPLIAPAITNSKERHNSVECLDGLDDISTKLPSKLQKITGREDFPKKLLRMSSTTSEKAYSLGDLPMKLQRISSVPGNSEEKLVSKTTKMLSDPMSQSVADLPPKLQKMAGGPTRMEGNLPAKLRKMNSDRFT
T1 sequence (P48548 1-419): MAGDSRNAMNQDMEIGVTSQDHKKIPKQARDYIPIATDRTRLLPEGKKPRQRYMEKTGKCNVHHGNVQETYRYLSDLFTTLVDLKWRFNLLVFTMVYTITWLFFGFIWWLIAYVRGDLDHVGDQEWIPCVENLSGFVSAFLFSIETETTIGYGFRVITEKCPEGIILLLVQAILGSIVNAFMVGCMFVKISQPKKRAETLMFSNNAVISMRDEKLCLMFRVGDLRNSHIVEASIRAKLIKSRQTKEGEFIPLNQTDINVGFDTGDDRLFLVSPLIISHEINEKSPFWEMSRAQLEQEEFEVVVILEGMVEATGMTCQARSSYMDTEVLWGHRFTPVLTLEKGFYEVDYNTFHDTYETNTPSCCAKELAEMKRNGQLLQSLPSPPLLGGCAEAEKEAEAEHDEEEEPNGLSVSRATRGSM
Procedure: For automated patch-clamp studies using the Sophion Q-patch, accumulative concentration-responses experiments were conducted to determine compound activity against the ion channel target. Voltage-clamp experiments were performed using HEK293 cells stably-expressing Kir3.1/3.4 using either a QPatch-16 or QPatch-48 (Sophion Bioscience A/S). A voltage waveform (VHold−20 mV, step to 60 mV for 100 ms, ramp to −120 mV over 500 ms, hold at −120 mV for 100 ms before returning to VHold) was repeatedly applied to the cells under voltage-clamp at a frequency of 0.1 Hz to elicit Kir3.1/3.4 currents. Mean current at −120 mV was measured in the absence (Icontrol) and presence of drug (IDrug). Assessment of passive leak was performed by removal of external potassium (IZero). Leak current was subtracted from control and drug recordings. Current inhibition (%) was calculated as {1−[(IDrug−IZero)/(IControl−IZero)]}*100. Data were fitted with a sigmoidal function to yield an IC50 and Hill coefficient. Composition of external experimental buffer was (in mM): 40 NaCl, 100 KCl, 5 CaCl2, 1 MgCl2, 10 HEPES pH 7.4. Composition of internal solution was (in mM). 40 K-gluconate, 60 KF, 20 NaCl, 5 Mg-ATP, 0.9 GTPgS, 20 EGTA, pH 7.2. Compounds were formulated in DMSO and diluted in buffer to give a final drug concentration of between […] and a final DMSO concentration of 0.1-0.3%.

[2] = molecular target: T1, Kir3.1/3.4; assay: Kir3.1/3.4 Electrophysiology Method (manual whole-cell patch clamp); type: cell-based; settings: Electrophysiology Method (TABLE 1)
Outline: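 Percent inhibition is relative to the pre-drug current, both leak-subtracted using a potassium-free bather, taken as the mean current at −140 mV. The protocol was a step to +60 mV, a ramp to −140 mV, then a return to −60 mV holding, every 10 s. Cells were rat Kir3.1/3.4-transfected HEK293 recorded by whole-cell patch clamp.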

| SMILES | IC50 [1] | IC50 [2] |
| --- | --- | --- |
| COc1ccccc1-c1csc2nc(N3C4CCC3CC(O)C4)nc(N3C4CCC3COC4)c12 (centres unmarked) [Example 400, 8-[5-(2-methoxyphenyl)-4-(3-oxa-8-azabicyclo[3.2.1]octan-8-yl)thieno[2,3-d]pyrimidin-2-yl]-8-azabicyclo[3.2.1]octan-3-ol] | 500 to 3000 nM | – |
| COc1ccccc1-c1csc2nc(N3C4CCC3CC(OC)C4)nc(N3C4CCC3CC(OC)C4)c12 (centres unmarked) [Example 407, 2,4-bis(3-methoxy-8-azabicyclo[3.2.1]octan-8-yl)-5-(2-methoxyphenyl)thieno[2,3-d]pyrimidine] | 500 to 3000 nM | – |
| O=C1CN(c2nc(N3C4CCC3COC4)c3c(-c4ccccc4Cl)csc3n2)CCN1 [Example 424, 4-[5-(2-chlorophenyl)-4-(3-oxa-8-azabicyclo[3.2.1]octan-8-yl)thieno[2,3-d]pyrimidin-2-yl]piperazin-2-one] | < 500 nM | – |
| COc1ccccc1-c1csc2nc(C#N)nc(N3C4CCC3CC(OC)C4)c12 (centres unmarked) [Example 405, 4-(3-methoxy-8-azabicyclo[3.2.1]octan-8-yl)-5-(2-methoxyphenyl)thieno[2,3-d]pyrimidine-2-carbonitrile] | 500 to 3000 nM | – |
| COc1ccccc1-c1csc2nc(N3C4CCC3CC(O)C4)nc(N3C4CCC3CC(OC)C4)c12 (centres unmarked) [Example 377, 8-[4-(3-methoxy-8-azabicyclo[3.2.1]octan-8-yl)-5-(2-methoxyphenyl)thieno[2,3-d]pyrimidin-2-yl]-8-azabicyclo[3.2.1]octan-3-ol] | 500 to 3000 nM | – |
| COc1ccccc1-c1csc2nc(N3CCNC(C(N)=O)C3)nc(N3C4CCC3COC4)c12 (centres unmarked) [Example 398, 4-[5-(2-methoxyphenyl)-4-(3-oxa-8-azabicyclo[3.2.1]octan-8-yl)thieno[2,3-d]pyrimidin-2-yl]piperazine-2-carboxamide] | < 500 nM | – |
| COC1CC2CCC(C1)N2c1nc(N2CCNC(=O)C2)nc2scc(-c3ccccc3Cl)c12 (centres unmarked) [Example 391, 4-[5-(2-chlorophenyl)-4-(3-methoxy-8-azabicyclo[3.2.1]octan-8-yl)thieno[2,3-d]pyrimidin-2-yl]piperazin-2-one] | 500 to 3000 nM | – |
| COC1CC2CCC(C1)N2c1nc(N2C3CCC2CC(O)C3)nc2scc(-c3ccccc3Cl)c12 (centres unmarked) [Example 375, 8-[5-(2-chlorophenyl)-4-(3-methoxy-8-azabicyclo[3.2.1]octan-8-yl)thieno[2,3-d]pyrimidin-2-yl]-8-azabicyclo[3.2.1]octan-3-ol] | 500 to 3000 nM | – |
| COC1CC2CCC(C1)N2c1nc(N2CCNC(C(N)=O)C2)nc2scc(-c3ccccc3Cl)c12 (centres unmarked) [Example 392, 4-[5-(2-chlorophenyl)-4-(3-methoxy-8-azabicyclo[3.2.1]octan-8-yl)thieno[2,3-d]pyrimidin-2-yl]piperazine-2-carboxamide] | < 500 nM | – |
| NC(=O)C1CCCN(c2nc(N3C4CCC3CC(CO)C4)nc3scc(-c4ccccc4Cl)c23)C1 (centres unmarked) [Example 393, 1-[5-(2-chlorophenyl)-2-[3-(hydroxymethyl)-8-azabicyclo[3.2.1]octan-8-yl]thieno[2,3-d]pyrimidin-4-yl]piperidine-3-carboxamide] | < 500 nM | – |
| COc1ccccc1-c1csc2nc(N3CCOC(C(N)=O)C3)nc(N3C4CCC3CC(OC)C4)c12 (centres unmarked) [Example 409, 4-[4-(3-methoxy-8-azabicyclo[3.2.1]octan-8-yl)-5-(2-methoxyphenyl)thieno[2,3-d]pyrimidin-2-yl]morpholine-2-carboxamide] | 500 to 3000 nM | – |
| COc1ncccc1-c1csc2ncnc(N3C4CCC3CC(CNC3CCC3)C4)c12 (centres unmarked) [Example 427, N-[[8-[5-(2-methoxy-3-pyridyl)thieno[2,3-d]pyrimidin-4-yl]-8-azabicyclo[3.2.1]octan-3-yl]methyl]cyclobutanamine] | < 500 nM | – |
| OC1CCN(c2nc(N3C4CCC3COC4)c3c(-c4ccccc4Cl)csc3n2)C1 (centres unmarked) [Example 426, 1-[5-(2-chlorophenyl)-4-(3-oxa-8-azabicyclo[3.2.1]octan-8-yl)thieno[2,3-d]pyrimidin-2-yl]pyrrolidin-3-ol] | < 500 nM | – |
| COC1CC2CCC(C1)N2c1nc(N2CCCC(C(N)=O)C2)c2c(-c3ccccc3Cl)csc2n1 (centres unmarked) [Example 374, 1-[5-(2-chlorophenyl)-2-(3-methoxy-8-azabicyclo[3.2.1]octan-8-yl)thieno[2,3-d]pyrimidin-4-yl]piperidine-3-carboxamide] | < 500 nM | – |
| COc1ccccc1-c1csc2nc(N3CCC(C(N)=O)C3)nc(N3C4CCC3COC4)c12 (centres unmarked) [Example 401, 1-[5-(2-methoxyphenyl)-4-(3-oxa-8-azabicyclo[3.2.1]octan-8-yl)thieno[2,3-d]pyrimidin-2-yl]pyrrolidine-3-carboxamide] | 500 to 3000 nM | – |
| COCC1CC2CCC(C1)N2c1nc(N2CCC(C(N)=O)C2)nc2scc(-c3ccccc3OC)c12 (centres unmarked) [Example 376, 1-[4-[3-(methoxymethyl)-8-azabicyclo[3.2.1]octan-8-yl]-5-(2-methoxyphenyl)thieno[2,3-d]pyrimidin-2-yl]pyrrolidine-3-carboxamide] | 500 to 3000 nM | – |
| COc1ccccc1-c1csc2nc(N3C4CCC3CC(CO)C4)nc(N3CCNC(=O)C3)c12 (centres unmarked) [Example 413, 4-[2-[3-(hydroxymethyl)-8-azabicyclo[3.2.1]octan-8-yl]-5-(2-methoxyphenyl)thieno[2,3-d]pyrimidin-4-yl]piperazin-2-one] | < 500 nM | – |
| COC1CC2CCC(C1)N2c1nc(N2CCCC(C(N)=O)C2)nc2scc(-c3ccccc3Cl)c12 (centres unmarked) [Example 373, 1-[5-(2-chlorophenyl)-4-(3-methoxy-8-azabicyclo[3.2.1]octan-8-yl)thieno[2,3-d]pyrimidin-2-yl]piperidine-3-carboxamide] | < 500 nM | – |
| COc1ccccc1-c1csc2nc(N3CCOC(C(N)=O)C3)nc(N3C4CCC3COC4)c12 (centres unmarked) [Example 418, 4-[5-(2-methoxyphenyl)-4-(3-oxa-8-azabicyclo[3.2.1]octan-8-yl)thieno[2,3-d]pyrimidin-2-yl]morpholine-2-carboxamide] | 500 to 3000 nM | – |
| CNC(=O)c1sc2ncnc(N3CCC(CN(C)C4CCN(C)C4)CC3)c2c1-c1ccccc1 (centres unmarked) [Example 131] | – | 3000 to 10000 nM |
| CC1CCN(CC2CC(c3ccccc3)N(c3ncnc4scc(-c5ccccc5)c34)C2)C1 (centres unmarked) [Example 198] | – | < 500 nM |
| CC(=O)NC1CCN(c2nc(N3CCC(CN(C)C4CCN(C)C4)CC3)c3c(-c4ccccc4)csc3n2)C1 (centres unmarked) [Example 226] | – | < 500 nM |
| COc1ccccc1-c1csc2ncnc(N3C4CCC3CC(NC3CCC3)C4)c12 (centres unmarked) [Example 342] | – | < 500 nM |
| CN1CCC(N(C)CC2CCN(c3nc(N4CCNCC4)nc4scc(-c5ccccc5)c34)CC2)C1 (centres unmarked) [Example 112] | – | < 500 nM |
| CC(C)N(CCNCC1CCN(c2ncnc3scc(-c4ccccc4)c23)CC1)C(C)C [Example 62, N′,N′-diisopropyl-N-[[1-(5-phenylthieno[2,3-d]pyrimidin-4-yl)-4-piperidyl]methyl]ethane-1,2-diamine] | – | < 500 nM |
| c1cncc(-c2csc3ncnc(N4CCC(COCCN5CCCC5)CC4)c23)c1 [Example 324] | – | 500 to 3000 nM |
| CN(C)[C@H]1CCCN(CC2CCN(c3ncnc4scc(-c5ccccc5)c34)CC2)C1 [Example 215] | – | < 500 nM |
| Fc1ccc(-c2csc3ncnc(N4CCC(CNC5CC5)CC4)c23)cc1 [Example 77, N-[[1-[5-(4-fluorophenyl)thieno[2,3-d]pyrimidin-4-yl]-4-piperidyl]methyl]cyclopropanamine] | – | 500 to 3000 nM |
| CC(=O)NC1CCN(CC2CCN(c3ncnc4scc(-c5ccccc5)c34)CC2)C1 (centres unmarked) [Example 253] | – | < 500 nM |
